Measured values as given in publication PMC6222509, “Dibasic Derivatives of Phenylcarbamic Acid against Mycobacterial Strains: Old Drugs and New Tricks?” (Molecules : A Journal of Synthetic Chemistry and Natural …, 2018).
Values after ≈ are worked out from the molar mass of the structure shown. Like-named read-outs stand apart in the source and are kept apart here.

What was measured:
[1] = system: M. tuberculosis H37Ra ATCC 25177 (MTa H37Ra); test: in vitro antimycobacterial MIC, 96-well Middlebrook broth, alamarBlue; format: cell-based, Mycobacterium tuberculosis; conditions: 7-day cultivation, read-out: MIC MTa H37Ra 7-d
Protocol: In vitro susceptibitity of given mycobacteria to reference drugs isoniazid (INH), ethambutol (EMB), ofloxacin (OFLX) or ciprofloxacin (CPX) was tested as well (Table 6 and Table 7).
A value of a minimum inhibitory concentration (MIC) was the lowest concentration of a tested compound, (i) which inhibited growth of MTv H37Rv, MK 235/80, MK 6509/96 and MA 330/80, respectively; (ii) at which no visible growth of MTa H37Ra, MS, MK DSM as well as MM was observed.
The molecules 1a–p were also in vitro screened against an avirulent M. tuberculosis H37Ra ATCC 25177 (MTa H37Ra), M. kansasii DSM 44162 (MK DSM), M. smegmatis ATCC 700084 (MS) and M. marinum CAMP 5644 (MM), respectively, in the Department of Infectious Diseases and Microbiology (Faculty of Veterinary Medicine, University of Veterinary and Pharmaceutical Sciences in Brno, Czech Republic).
Determination of a minimum inhibitory concentration (MIC) against MTa H37Ra. The mycobacterium was grown on Middlebrook broth (MB; MiddleBrook Pharmaceuticals, Inc., Westlake, TX, USA), supplemented with Oleic-Albumin-Dextrose-Catalase (OADC) supplement (Difco, Lawrence, KS, USA) and salicylate-derived mycobactin J (2 μg/mL; Allied Monitor Inc., Fayette, MO, USA), an iron-binding siderophore.
At log phase growth, a culture sample (10 mL) was centrifuged at 15,000 rpm/20 min using a bench top centrifuge MPW-65R (MPW Med Instruments, Warsaw, Poland). Following removal of the supernatant, a pellet was washed in fresh liquid Middlebrook 7H9GC broth (MiddleBrook Pharmaceuticals, Inc.) and re-suspended in a fresh OADC-supplemented MB (10 mL).
Turbidity was adjusted to match the McFarland standard No. 1 [87] containing approximately 3 × 10^8 Colony Forming Units (CFU) with MB broth. Further 1:20 dilution of the culture was performed in MB broth.
Susceptibility of MTa H37Ra was investigated in a 96-well plate format. In the experiments, sterile deionized water (300 µL) was added to all outer-perimeter wells of the plates to minimize evaporation of the medium in test wells during incubation. Each evaluated compound (100 µL) was incubated with MTa H37Ra (100 µL). Dilutions of each compound were prepared in triplicate and final concentrations varied from 1000 μg/mL to 8 μg/mL. All tested molecules were dissolved in DMSO (Sigma-Aldrich, Irvine, UK), and subsequent dilutions were made in supplemented MB broth. The plates were sealed with parafilm and incubated at 37 °C for 7 days.
Following incubation, 10% addition a water-soluble dye, the alamarBlue reagent (AbD Serotec, Kidlington, UK) was mixed into each well. This resaurin-based reagent served as an oxidation-reduction indicator of metabolic function and cellular health in cell viability bioassays.
Absorbance readings at 570 nm and 600 nm were taken, initially for background subtraction and after 24h re-incubation. The subtraction is necessary for strongly colored compounds, where the color may interfere with the interpretation of any color change. For non-interfering compounds, a blue color in a well was interpreted as absence of growth and pink color was scored as growth.
The minimum inhibitory concentration (MIC) was defined as the lowest concentration of a compound, at which no visible bacterial growth was observed. In other words, the MIC was the lowest concentration that prevented visual color change from blue to pink.

[2] = system: M. kansasii DSM 44162 (MK DSM); test: in vitro antimycobacterial MIC, broth dilution micromethod in Middlebrook 7H9; format: cell-based; conditions: Mycobacterium kansasii, DSM 44162 / DSM 7, 168 h
[3] = system: M. smegmatis ATCC 700084 (MS); test: as above; format: cell-based, Mycobacterium smegmatis; conditions: Mycolicibacterium smegmatis, ATCC700084, 72 h
[4] = surface tension, drop count method, Traube stalagmometer; format: physicochemical; conditions: aqueous solution c = 2.0 × 10^−3 M, 21 °C; water γ = 0.07259 N/m
Protocol: Surface tension (relative surface activity; γ) of aqueous solutions of the compounds 1a–p (c = 2.0 × 10^−3 M) was determined by a drop count technique using a Traube stalagmometer. All evaluated substances were able to decrease surface tension of water (γ = 0.07259 N/m) at 21 °C.
Surface tension (relative surface activity; γ) of the derivatives 1a–p was determined by a drop count method using a glassy Traube stalagmometer (Kavalier Glass, Prague, Czech Republic). Number of drops of compounds’ and reference solutions were counted between upper and lower marks of the stalagmometer. Aqueous solutions of the molecules 1a–p were prepared with distilled, deionized water (c = 2.0 × 10^−3 M). […] The drops were allowed to form at constant temperature 21 °C. The experimental procedure was described in a paper. Current measurements were done in six replicates and average γ values (in N/m units) were reported (Table 1).

[5] = electronic properties, UV/Vis spectrophotometry of methanolic solutions; format: physicochemical; conditions: methanolic solution c = 8.0 × 10^−5 M; for log ε2 (Ch-T): charge-transfer maximum λ2 (Ch-T) = 236–238 nm; for log ε1: λ1 = 208–210 nm; for log ε3: λ3 = 278–280 nm
From the text: Electronic properties of the molecules 1a–p (Table 1) were characterized by logarithms of molar absorption coefficients (log ε) of their methanolic solutions (c = 8.0 × 10^−5 M) investigated in the UV/Vis region of an electromagnetic spectrum.
Positions of these absorption bands in the spectrum were typical for derivatives of (substituted) phenylcarbamic acid and the bands were assigned as first local excitation (λ3), charge-transfer (λ2 (Ch-T)) and second local excitation (λ1) absorption maxima, respectively. The λ1 and λ2 (Ch-T) maxima of 2-alkoxy substituted compounds 1a–d and 1i–l were slightly lower compared to those of their 3-alkoxy substituted positional isomers 1e–h and 1m–p (Table 1), respectively.
The UV/Vis spectra of methanolic solutions of analyzed compounds 1a–p (c = 8.0 × 10^−5 M) were observed on the 8452A Diode Array spectrophotometer HP-8452A (Hewlett-Packard, Palo Alto, CA, USA) at 21 °C. Methanol for UV-spectroscopy (Merck, Darmstadt, Germany) was used for preparation of these solutions. Results of the UV/Vis analyses were collected and stored digitally using the ChemStation controller software (Agilent Technologies, Waldbronn, Germany). The HP-8452A apparatus measured a complete range of compounds’ spectrum from 190 nm to 820 nm.
The log ε values for presently observed absorption maxima were calculated following the Lambert-Beer’s law, which was discussed in [35], for example, and expressed by Equation (16):A = ε × c × l(16) where the A parameter represented absorbance of a compound’s solution, the ε descriptor was a molar absorption coefficient (in L/mol/cm units) and l was path length (in cm units).

[6] = Mycobacterium tuberculosis, 168 h
[7] = 7-day cultivation, 37 °C, read-out: MIC MK DSM 7-d
[8] = read-out: MIC MS 3-d, 3-day cultivation, 37 °C
[9] = 3-day cultivation, 37 °C, read-out: MIC MS 3-d
[10] = read-out: MIC MK DSM 7-d, 7-day cultivation, 37 °C

SMILES	MIC [1, 6] [µM]	MIC [2, 7] [µM]	MIC [3, 8] [µM]	surface tension γ (relative surface activity) [4] [N/m]	log ε2 (Ch-T) [5]	log ε1 [5]	log ε3 [5]	MIC [3, 9] [µM]	MIC [2, 10] [µM]	MIC [1] [µM]
CCCCOc1ccccc1NC(=O)OC(CN(CCC)CCC)CN1CCCC1 (centres unmarked) [1a]	213 (≈ 89.4 µg/mL)	53 (≈ 22.2 µg/mL)	213 (≈ 89.4 µg/mL)	0.06464	4.19	4.51	3.63			
CCCCCOc1ccccc1NC(=O)OC(CN(CCC)CCC)CN1CCCC1 (centres unmarked) [1b]	52 (≈ 22.5 µg/mL)	26.1 (≈ 11.3 µg/mL)		0.06366	4.05	4.39	3.51	104 (≈ 45.1 µg/mL)		
CCCCCCOc1ccccc1NC(=O)OC(CN(CCC)CCC)CN1CCCC1 (centres unmarked) [1c]	25 (≈ 11.2 µg/mL)	12.7 (≈ 5.69 µg/mL)		0.06222	4.52	4.58	3.49	51 (≈ 22.8 µg/mL)		
CCCCCCCOc1ccccc1NC(=O)OC(CN(CCC)CCC)CN1CCCC1.Cl.Cl (centres unmarked) [1d, 1-[2-[({[2-(heptyl-oxy)phenyl]amino}carbonyl)oxy]-3-(dipropylammonio)propyl]pyrrolidinium dichloride]	12.5		24.9	0.05985	4.08	4.43	3.55		6.2	
CCCCOc1cccc(NC(=O)OC(CN(CCC)CCC)CN2CCCC2)c1 (centres unmarked) [1e]	8.1 (≈ 3.4 µg/mL)	16.2 (≈ 6.8 µg/mL)		0.06316	4.24	4.65	3.59	16.2 (≈ 6.8 µg/mL)		
CCCCCOc1cccc(NC(=O)OC(CN(CCC)CCC)CN2CCCC2)c1.Cl.Cl (centres unmarked) [1f, 1-[2-[({[3-(pentyloxy)phenyl]amino}carbonyl)oxy]-3-(dipropylammonio)propyl]-pyrrolidinium dichloride]	< 3.9		15.8	0.06285	4.27	4.55	3.62		7.9	
CCCCCCOc1cccc(NC(=O)OC(CN(CCC)CCC)CN2CCCC2)c1 (centres unmarked) [1g]	< 3.8	3.8 (≈ 1.7 µg/mL)		0.06105	4.13	4.54	3.48	15.4 (≈ 6.89 µg/mL)		
CCCCCCCOc1cccc(NC(=O)OC(CN(CCC)CCC)CN2CCCC2)c1.Cl.Cl (centres unmarked) [1h, 1-[2-[({[3-(heptyloxy)phenyl]amino}carbonyl)oxy]-3-(dipropylammonio)propyl]pyrrolidinium dichloride]	< 3.7		15	0.05786	4.27	4.66	3.63		1.9	
CCCCOc1ccccc1NC(=O)OC(CN(CCC)CCC)CN1CCCCCC1 (centres unmarked) [1i]	203 (≈ 90.9 µg/mL)	51 (≈ 22.8 µg/mL)	203 (≈ 90.9 µg/mL)	0.06302	4.08	4.44	3.57			
CCCCCOc1ccccc1NC(=O)OC(CN(CCC)CCC)CN1CCCCCC1.O=C(O)C(=O)O (centres unmarked) [1j, 1-[2-[({[2-(Pentyloxy)phenyl]amino}carbonyl)oxy]-3-(dipropylammonio)propyl]-azepanium oxalate]	199		6.2	0.06206	4.22	4.54	3.71		50	
CCCCCCOc1ccccc1NC(=O)OC(CN(CCC)CCC)CN1CCCCCC1 (centres unmarked) [1k]	195 (≈ 92.8 µg/mL)	98 (≈ 46.6 µg/mL)		0.06065	4.10	4.42	3.57	390 (≈ 186 µg/mL)		
CCCCCCCOc1cccc(NC(=O)OC(CN(CCC)CCC)CN2CCCCCC2)c1.O=C(O)C(=O)O (centres unmarked) [1l, 1-[2-[({[3-(hept-yloxy)phenyl]amino}carbonyl)oxy]-3-(dipropylammonio)propyl]azepanium oxalate]		382		0.05853	4.14	4.44	3.59	382		96
CCCCOc1cccc(NC(=O)OC(CN(CCC)CCC)CN2CCCCCC2)c1 (centres unmarked) [1m]	15.4 (≈ 6.89 µg/mL)	7.7 (≈ 3.45 µg/mL)		0.06298	4.09	4.52	3.44	30.7 (≈ 13.7 µg/mL)		
CCCCCOc1cccc(NC(=O)OC(CN(CCC)CCC)CN2CCCCCC2)c1.Cl.Cl (centres unmarked) [1n, 1-[2-[({[3-(pentyloxy)phenyl]amino}carbonyl)oxy]-3-(di-propylammonio)propyl]azepanium dichloride]	7.5		15	0.06154	4.18	4.56	3.52		7.5	
